# Results from the supplement of paper PMC7017272.
# ± gives the standard deviation of the averaged measurements.
# Experiments:
# Conditions in all cases: treatment time: 3 days
# [1] = system: UT-SCC-24A; experiment: relative IC50 (midpoint of the fitted curve; maximal inhibition may be below 50%); higher = less potent
# Procedure: (§1)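 HNSCC cell lines (500 cells/well, 384-well) were cultured on plastic, on top of (2D) or embedded (3D) in Matrigel or human leiomyoma matrix Myogel (500 ug/mL; Myogel 3D mixed with rat collagen I). Cells were treated for 3 days with 5 ten-fold concentrations of each drug, and viability was read by CellTiter-Glo. Viability was normalised to DMSO (0% inhibition) and 100 uM benzethonium chloride (100% inhibition) controls and fitted with the FIMM DSRT pipeline to give IC50 (nM), maximal % inhibition and the drug sensitivity score (DSS). Suffixes _1/_2/_3 on drug names are replicates.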
# [2] = system: UT-SCC-106A; experiment: relative IC50 (midpoint of the fitted curve; maximal inhibition may be below 50%); higher = less potent
# Outline: (§2)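 HPV-negative HNSCC cell lines were seeded at 500 cells/well in 384-well plates on plastic, on Matrigel- or Myogel-coated wells (500 µg/mL), or embedded in Matrigel or Myogel plus rat collagen I. Compounds were given at five 10-fold concentrations for 3 days, and viability was read by CellTiter-Glo 2.0 luminescence. Signals were normalised to vehicle (0.1% DMSO) and cell-killing control wells. Percent-inhibition dose–response curves were fitted in the FIMM pipeline to derive IC50, maximal inhibition and drug sensitivity score.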
# [3] = system: UT-SCC-73; experiment: as above
# Outline: as §2
# [4] = system: UT-SCC-44; experiment: as above
# Outline: as §2
# [5] = system: UT-SCC-42A; experiment: as above
# Outline: as §2
# [6] = system: UT-SCC-14; experiment: as above
# Outline: as §2
# [7] = system: UT-SCC-28; experiment: as above
# Outline: as §2
# [8] = system: UT-SCC-81; experiment: as above
# Outline: as §2
# [9] = system: UT-SCC-8; experiment: as above
# Outline: as §2
# [10] = system: UT-SCC-40; experiment: as above
# Outline: as §2
# [11] = system: UT-SCC-24B; experiment: as above
# Outline: as §2
# [12] = system: UT-SCC-42B; experiment: as above
# Outline: as §2
# [13] = system: UT-SCC-42A; experiment: maximal % inhibition of viability relative to DMSO; higher = stronger effect
# Procedure: as §1, with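 “DMSO” for “DMSO (0% inhibition)”, “and” for “and 100 uM”, “chloride” for “chloride (100% inhibition)”, “DSS.” for “the drug sensitivity score (DSS).”, “_1/_2/_3” for “_1/_2/_3 on drug names”, “replicates. Only inhibition-mode (IC50) fits are kept.” for “replicates.”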
# [14] = system: UT-SCC-14; experiment: as above
# Procedure: as §1, with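 “DMSO” for “DMSO (0% inhibition)”, “and” for “and 100 uM”, “chloride” for “chloride (100% inhibition)”, “DSS.” for “the drug sensitivity score (DSS).”, “_1/_2/_3” for “_1/_2/_3 on drug names”, “replicates. Only inhibition-mode (IC50) fits are kept.” for “replicates.”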
# [15] = system: UT-SCC-28; experiment: as above
# Procedure: as §1, with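 “DMSO” for “DMSO (0% inhibition)”, “and” for “and 100 uM”, “chloride” for “chloride (100% inhibition)”, “DSS.” for “the drug sensitivity score (DSS).”, “_1/_2/_3” for “_1/_2/_3 on drug names”, “replicates. Only inhibition-mode (IC50) fits are kept.” for “replicates.”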
# [16] = system: UT-SCC-81; experiment: as above
# Procedure: as §1, with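 “DMSO” for “DMSO (0% inhibition)”, “and” for “and 100 uM”, “chloride” for “chloride (100% inhibition)”, “DSS.” for “the drug sensitivity score (DSS).”, “_1/_2/_3” for “_1/_2/_3 on drug names”, “replicates. Only inhibition-mode (IC50) fits are kept.” for “replicates.”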
# [17] = system: UT-SCC-8; experiment: as above
# Procedure: as §1, with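 “DMSO” for “DMSO (0% inhibition)”, “and” for “and 100 uM”, “chloride” for “chloride (100% inhibition)”, “DSS.” for “the drug sensitivity score (DSS).”, “_1/_2/_3” for “_1/_2/_3 on drug names”, “replicates. Only inhibition-mode (IC50) fits are kept.” for “replicates.”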
# [18] = system: UT-SCC-40; experiment: as above
# Procedure: as §1, with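 “DMSO” for “DMSO (0% inhibition)”, “and” for “and 100 uM”, “chloride” for “chloride (100% inhibition)”, “DSS.” for “the drug sensitivity score (DSS).”, “_1/_2/_3” for “_1/_2/_3 on drug names”, “replicates. Only inhibition-mode (IC50) fits are kept.” for “replicates.”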
# [19] = system: UT-SCC-24B; experiment: as above
# Procedure: as §1, with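 “DMSO” for “DMSO (0% inhibition)”, “and” for “and 100 uM”, “chloride” for “chloride (100% inhibition)”, “DSS.” for “the drug sensitivity score (DSS).”, “_1/_2/_3” for “_1/_2/_3 on drug names”, “replicates. Only inhibition-mode (IC50) fits are kept.” for “replicates.”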
# [20] = system: UT-SCC-42B; experiment: as above
# Procedure: as §1, with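 “DMSO” for “DMSO (0% inhibition)”, “and” for “and 100 uM”, “chloride” for “chloride (100% inhibition)”, “DSS.” for “the drug sensitivity score (DSS).”, “_1/_2/_3” for “_1/_2/_3 on drug names”, “replicates. Only inhibition-mode (IC50) fits are kept.” for “replicates.”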
# [21] = culture condition: embedded in Matrigel
# [22] = culture condition: embedded in Myogel + collagen I
# [23] = culture condition: on top of Matrigel
# [24] = culture condition: on top of Myogel
# [25] = culture condition: plastic 2D (no matrix)
compound,measurement,setting,value
Cc1c(CN2CCN(C(=O)[C@H](C)O)CC2)sc2c(N3CCOCC3)nc(-c3cnc(N)nc3)nc12 [Apitolisib],relative IC50,[1]; [21],577 nM
same,relative IC50,[1]; [22],436 nM
same,relative IC50,[1]; [23],483 nM
same,relative IC50,[1]; [24],818 nM
same,relative IC50,[1]; [25],416 nM
same,relative IC50,[2]; [21],336 nM
same,relative IC50,[2]; [22],862 nM
same,relative IC50,[2]; [23],488 nM
same,relative IC50,[2]; [24],1470 nM
same,relative IC50,[2]; [25],936 nM
same,relative IC50,[3]; [21],1110 nM
same,relative IC50,[3]; [22],1170 nM
same,relative IC50,[3]; [23],1450 nM
same,relative IC50,[3]; [24],1540 nM
same,relative IC50,[3]; [25],1670 nM
same,relative IC50,[4]; [21],279 nM
same,relative IC50,[4]; [22],1450 nM
same,relative IC50,[4]; [23],452 nM
same,relative IC50,[4]; [25],1130 nM
same,relative IC50,[5]; [21],1510 nM
same,relative IC50,[5]; [22],1110 nM
same,relative IC50,[5]; [23],1320 nM
same,relative IC50,[5]; [24],1410 nM
same,relative IC50,[5]; [25],1090 nM
same,relative IC50,[6]; [21],1210 nM
same,relative IC50,[6]; [22],1810 nM
same,relative IC50,[6]; [23],1510 nM
same,relative IC50,[6]; [24],1930 nM
same,relative IC50,[6]; [25],2000 nM
same,relative IC50,[7]; [21],330 nM
same,relative IC50,[7]; [22],1050 nM
same,relative IC50,[7]; [23],244 nM
same,relative IC50,[7]; [25],352 nM
same,relative IC50,[8]; [21],396 nM
same,relative IC50,[8]; [22],748 nM
same,relative IC50,[8]; [23],1300 nM
same,relative IC50,[8]; [24],1040 nM
same,relative IC50,[8]; [25],1140 nM
same,relative IC50,[9]; [21],1330 nM
same,relative IC50,[9]; [22],2370 nM
same,relative IC50,[9]; [23],1380 nM
same,relative IC50,[9]; [24],1280 nM
same,relative IC50,[9]; [25],1410 nM
same,relative IC50,[10]; [21],1240 nM
same,relative IC50,[10]; [22],1560 nM
same,relative IC50,[10]; [23],1520 nM
same,relative IC50,[10]; [24],1870 nM
same,relative IC50,[10]; [25],1820 nM
same,relative IC50,[11]; [21],891 nM
same,relative IC50,[11]; [22],736 nM
same,relative IC50,[11]; [23],874 nM
same,relative IC50,[11]; [24],1150 nM
same,relative IC50,[11]; [25],850 nM
same,relative IC50,[12]; [21],1900 nM
same,relative IC50,[12]; [23],2320 nM
same,relative IC50,[12]; [24],2160 nM
same,relative IC50,[12]; [25],2390 nM
same,maximal % inhibition of viability,[13]; [21],79.9 ± 3.6%
same,maximal % inhibition of viability,[13]; [22],75.8 ± 1.8%
same,maximal % inhibition of viability,[13]; [23],80.1 ± 2.3%
same,maximal % inhibition of viability,[13]; [24],75.2 ± 1.4%
same,maximal % inhibition of viability,[13]; [25],81 ± 1.5%
same,maximal % inhibition of viability,[14]; [21],84.33 ± 0.67%
same,maximal % inhibition of viability,[14]; [22],80.8 ± 3%
same,maximal % inhibition of viability,[14]; [23],85.5 ± 3.3%
same,maximal % inhibition of viability,[14]; [24],79.4 ± 0.92%
same,maximal % inhibition of viability,[14]; [25],82.1 ± 3.8%
same,maximal % inhibition of viability,[15]; [21],63.5 ± 2.3%
same,maximal % inhibition of viability,[15]; [22],76.8 ± 4.2%
same,maximal % inhibition of viability,[15]; [23],69.97 ± 0.67%
same,maximal % inhibition of viability,[15]; [25],68.4 ± 2.8%
same,maximal % inhibition of viability,[16]; [21],93.5 ± 1.6%
same,maximal % inhibition of viability,[16]; [22],81.1 ± 4.5%
same,maximal % inhibition of viability,[16]; [23],88.93 ± 0.85%
same,maximal % inhibition of viability,[16]; [24],79.9 ± 1.5%
same,maximal % inhibition of viability,[16]; [25],82.8 ± 3.6%
same,maximal % inhibition of viability,[17]; [21],97.57 ± 0.12%
same,maximal % inhibition of viability,[17]; [22],87.6 ± 4.4%
same,maximal % inhibition of viability,[17]; [23],94.8 ± 1.1%
same,maximal % inhibition of viability,[17]; [24],90.4 ± 1.6%
same,maximal % inhibition of viability,[17]; [25],94 ± 1.2%
same,maximal % inhibition of viability,[18]; [21],89.1 ± 2.1%
same,maximal % inhibition of viability,[18]; [22],78.6 ± 1.7%
same,maximal % inhibition of viability,[18]; [23],87.3 ± 1.2%
same,maximal % inhibition of viability,[18]; [24],64 ± 9.4%
same,maximal % inhibition of viability,[18]; [25],74.7 ± 2.4%
same,maximal % inhibition of viability,[19]; [21],91.37 ± 0.75%
same,maximal % inhibition of viability,[19]; [22],92.1 ± 2.7%
same,maximal % inhibition of viability,[19]; [23],90.4 ± 1.1%
same,maximal % inhibition of viability,[19]; [24],90.53 ± 0.42%
same,maximal % inhibition of viability,[19]; [25],92.97 ± 0.47%
same,maximal % inhibition of viability,[20]; [21],86.7 ± 1.6%
same,maximal % inhibition of viability,[20]; [23],76.3 ± 2.2%
same,maximal % inhibition of viability,[20]; [24],58.6 ± 2%
same,maximal % inhibition of viability,[20]; [25],64.5 ± 1.8%
